Measurements from US6593323B1, “Benzimidazole compounds and drugs containing the same” (Fuji Photo Film Co., Ltd., priority 1999, dated 2003).

Tested on: mouse peritoneal macrophages
Test: Suppression of foaming of macrophages: cholesterol ester (CE) production in mouse peritoneal macrophages loaded with liposomes
Type: cell-based
Details: for CE yield (%): test compound 5 μM, 16 h with liposomes, cholesterol ester yield relative to control without test compound = 100% (smaller value = more potent suppression); for suppression of foaming of macrophages / cholesterol ester synthesis (result in words): mouse peritoneal macrophages, 5 μM
Procedure: Activity of the compounds of the present invention for suppressing the foaming of macrophages, which triggers arterial sclerosis, was examined. (1) In vitro experiment using mouse peritoneal macrophages.
15-Week old female ICR mice (Nippon SLC) were subjected to bleeding by cutting off their cervicalis, and Hanks buffer (Nippon Seiyaku) was injected into their peritoneal cavities. After abdominal regions of the mice were massaged, the buffer was recovered immediately, and then the resulting buffer was centrifuged at 1,000 r.p.m. for five minutes to collect peritoneal macrophages. Then, the collected macrophages were suspended in GTI medium (Wako Pure Chemical Industries), and inoculated onto a 24-well microtiter plate. After the macrophages were cultivated at 37° C. under 5% CO2 for two hours, the culture medium was changed with Dulbecco Modified Eagle Medium (MEM, Nippon Seiyaku). The macrophages were further cultivated at 37° C. under 5% CO2 for 16 hours, and then a test compound and liposomes were added to the culture.
1) Test compound: dissolved in DMSO (Wako Pure Chemical Industries),
2) Liposomes: PC/PS/DCP/CHOL=50/50/10/75 (nmol)
PC: Phosphatidylcholine (Funakoshi);
PS: Phosphatidylserine (Funakoshi);
DCP: Dicetylphosphate (Funakoshi);
CHOL: Cholesterol (Sigma)
After cultivation was further continued at 37° C. under 5% CO2 for 16 hours, lipid fraction was extracted with chloroform and methanol. The extracted lipid fraction was dissolved in isopropyl alcohol, and the produced cholesterol ester (CE) was quantified by an enzymatic luminescence method. Yield of the cholesterol ester was calculated as a relative ratio based on yield of the control as 100% where no test compound was added.

Compound | CE yield (%) | suppression of foaming of macrophages / cholesterol ester synthesis (result in words)
3-(5-(1-methylbenzimidazolyl-2-thio)pentyl)-5-methyl-2,4-oxazolidinedione [Compound 14] | 20% | 
3-(6-(5-chlorobenzothiazolyl-2-thio)hexyl)-2,4-thiazolidinedione [Compound 16] | 15% | 
O=C1CSC(=O)N1CCCCCSc1nc2ccccc2[nH]1 [Compound 2, 3-(5-(benzimidazolyl-2-thio)pentyl)-2,4-thiazolidinedione] | 19% | 
O=C1CCC(=O)N1CCCCCSc1nc2ccccc2[nH]1 [Compound 11, N-(5-(benzimidazolyl-2-thio)pentyl)succinimide] | 19% | 
CCC(=O)n1c(SCCCCCN2C(=O)OC(C)C2=O)nc2ccccc21 (stereo not shown) [Compound 15, 3-(5-(1-propionylbenzimidazolyl-2-thio)pentyl)-5-methyl-2,4-oxazolidinedione] | 12% | 
O=C1CSC(=O)N1CCOCCSc1nc2ccccc2[nH]1 [Compound 22] | 23% | 
O=C1CSC(=O)N1CCOCCOCCSc1nc2ccccc2[nH]1 [Compound 23, 3-(2-(2-(2-benzimidazolyl-2-thio)ethoxy)ethoxy)ethyl-2,4-thiazolidinedione] | 22% | 
O=C1c2ccccc2C(=O)N1CCCCSCc1nc2ccccc2[nH]1 [Ref. 1, reference compound] | 89% | completely inactive
CC(C)Oc1cccc(OC(C)C)c1NC(=O)CN1CCN(CCCSc2nc3ccccc3[nH]2)CC1 [Ref. 2, reference compound] | 95% | almost no inhibitory effect
CCCCCCN(CCCCCSc1nc2ccccc2[nH]1)C(=O)Nc1ccc(F)cc1F [Ref. 3, reference compound] | 78% | almost no inhibitory effect
